Organism: Rattus norvegicus
Experiment: Open TG-GATES - Regimen: Daily Repeat
Format: toxicity, organism-based, Sprague-Dawley
Set-up: regimen Daily Repeat, gender Male, age 6 weeks
Settings: in vivo, po, route gavage; for gamma-GTP / ALP / ALT / AST / BUN / CRE / DBIL / GLC / IP / K / LDH / Na / PL / RALB / TBIL / TC / TG / TP: tissue Plasma; for APTT / Bas / Eos / Fbg / Hb / Ht / Lym / MCH / MCHC / MCV / Mono / Neu / PT / Plat / RBC / Ret / WBC: tissue Blood; for KIDNEY_L / KIDNEY_R / KIDNEY_TOTAL: tissue Kidney; for LIVER: tissue Liver
[1] = 450 mg/kg, 72 h, dose level High, time 3 day
[2] = 450 mg/kg, […], dose level High, time 7 day
[3] = 450 mg/kg, […], dose level High, time 14 day
[4] = 450 mg/kg, […], dose level High, time 28 day

CC(CCc1ccccc1)NCC(O)c1ccc(O)c(C(N)=O)c1 (centres undefined) [LABETALOL] showed a gamma-GTP (150 mg/kg, […], dose level Middle, time 28 day) of 1.2 IU/L, a TERMINAL_BW [1] of 240.1 g and an APTT [1] of 17 s. For the same compound, the Bas [1] was 0%, the Eos [1] was 0.8% and the Fbg [1] was 275.8 mg/dL. For the same compound, the Hb [1] was 13.6 g/dL, the Ht [1] was 39.8% and the Lym [1] was 79%. It also gave an MCH [1] of 21.2 pg, an MCHC [1] of 34.2% and an MCV [1] of 61.9 fL. For the same compound, the Mono [1] was 2.4%, the Neu [1] was 17.2% and the PT [1] was 12.9 s. The Plat [1] was 114.3 x10_4/uL, the RBC [1] was 644 x10_4/ul and the Ret [1] was 6.4%. It also gave a WBC [1] of 89.1 x10_2/uL, a KIDNEY_L [1] of 1 g and a KIDNEY_R [1] of 1 g. For the same compound, the KIDNEY_TOTAL [1] was 2 g, the LIVER [1] was 9.9 g and the ALP [1] was 1714 IU/L. For the same compound, the ALT [1] was 45.4 IU/L, the AST [1] was 61.8 IU/L and the BUN [1] was 16.4 mg/dL. It also gave a CRE [1] of 0.2 mg/dL, a DBIL [1] of 0.014 mg/dL and a GLC [1] of 162.8 mg/dL. It also gave an IP [1] of 7.1 mg/dL, a K [1] of 4.4 meq/L and an LDH [1] of 45.2 IU/L. It also gave a Na [1] of 142.6 meq/L, a PL [1] of 142.8 mg/dL and an RALB [1] of 2.6 g/dL. The TBIL [1] was 0.038 mg/dL, the TC [1] was 88 mg/dL and the TG [1] was 43.6 mg/dL. It also gave a TP [1] of 5.6 g/dL, a gamma-GTP [1] of 1 IU/L and a TERMINAL_BW [2] of 269.7 g. It also gave a TERMINAL_BW [3] of 293.4 g, a TERMINAL_BW [4] of 333.5 g and an APTT [2] of 17.5 s. For the same compound, the Bas [2] was 0%, the Eos [2] was 0.8% and the Fbg [2] was 266.4 mg/dL. It also gave a Hb [2] of 14.1 g/dL, a Ht [2] of 40.5% and a Lym [2] of 77.8%. It also gave an MCH [2] of 21.1 pg, an MCHC [2] of 34.7% and an MCV [2] of 60.7 fL. It also gave a Mono [2] of 3.4%, a Neu [2] of 17.4% and a PT [2] of 13.5 s. The Plat [2] was 97.4 x10_4/uL, the RBC [2] was 667.6 x10_4/ul and the Ret [2] was 4%. For the same compound, the WBC [2] was 80.1 x10_2/uL, the APTT [3] was 18.2 s and the Bas [3] was 0%. The Eos [3] was 1%, the Fbg [3] was 278 mg/dL and the Hb [3] was 15.3 g/dL. It also gave a Ht [3] of 44.1%, a Lym [3] of 78.3% and an MCH [3] of 20.6 pg. The MCHC [3] was 34.8%, the MCV [3] was 59.1 fL and the Mono [3] was 2%. It also gave a Neu [3] of 17.7%, a PT [3] of 13.6 s and a Plat [3] of 94.8 x10_4/uL. It also gave an RBC [3] of 745 x10_4/ul, a Ret [3] of 2.9% and a WBC [3] of 85.7 x10_2/uL. It also gave an APTT [4] of 19.7 s, a Bas [4] of 0% and an Eos [4] of 1%. The Fbg [4] was 228.5 mg/dL, the Hb [4] was 15.9 g/dL and the Ht [4] was 44.5%. For the same compound, the Lym [4] was 78.5%, the MCH [4] was 19.5 pg and the MCHC [4] was 35.6%. For the same compound, the MCV [4] was 54.7 fL, the Mono [4] was 2% and the Neu [4] was 18%. The PT [4] was 14.7 s, the Plat [4] was 79 x10_4/uL and the RBC [4] was 813.5 x10_4/ul. For the same compound, the Ret [4] was 1%, the WBC [4] was 104.3 x10_2/uL and the KIDNEY_L [2] was 1.2 g. The KIDNEY_R [2] was 1.1 g, the KIDNEY_TOTAL [2] was 2.3 g and the KIDNEY_L [3] was 1.1 g. The KIDNEY_R [3] was 1.2 g, the KIDNEY_TOTAL [3] was 2.3 g and the KIDNEY_L [4] was 1.4 g. The KIDNEY_R [4] was 1.3 g, the KIDNEY_TOTAL [4] was 2.6 g and the LIVER [2] was 11 g. The LIVER [3] was 10.8 g, the LIVER [4] was 11.6 g and the ALP [2] was 1741.8 IU/L. For the same compound, the ALT [2] was 55.8 IU/L, the AST [2] was 65.8 IU/L and the BUN [2] was 16.2 mg/dL. It also gave a CRE [2] of 0.2 mg/dL, a DBIL [2] of 0.008 mg/dL and a GLC [2] of 162.2 mg/dL. It also gave a K [2] of 4.3 meq/L, an LDH [2] of 50 IU/L and a Na [2] of 142.4 meq/L. The PL [2] was 149.8 mg/dL, the RALB [2] was 2.6 g/dL and the TBIL [2] was 0.03 mg/dL. The TC [2] was 91.2 mg/dL, the TG [2] was 37.2 mg/dL and the TP [2] was 5.7 g/dL. For the same compound, the gamma-GTP [2] was 1.2 IU/L, the ALP [3] was 1433.3 IU/L and the ALT [3] was 45.3 IU/L. For the same compound, the AST [3] was 61.3 IU/L, the BUN [3] was 18.7 mg/dL and the CRE [3] was 0.3 mg/dL. The DBIL [3] was 0.01 mg/dL, the GLC [3] was 176.7 mg/dL and the K [3] was 3.8 meq/L. It also gave an LDH [3] of 47.7 IU/L, a Na [3] of 145.3 meq/L and a PL [3] of 138 mg/dL. For the same compound, the RALB [3] was 2.7 g/dL, the TBIL [3] was 0.0267 mg/dL and the TC [3] was 79.3 mg/dL. For the same compound, the TG [3] was 38.3 mg/dL, the TP [3] was 6 g/dL and the gamma-GTP [3] was 1.3 IU/L. The ALP [4] was 1187.5 IU/L, the ALT [4] was 54 IU/L and the AST [4] was 70 IU/L. For the same compound, the BUN [4] was 25 mg/dL, the CRE [4] was 0.3 mg/dL and the DBIL [4] was 0.02 mg/dL. It also gave a GLC [4] of 159.5 mg/dL, an IP [4] of 7.8 mg/dL and a K [4] of 4.2 meq/L. For the same compound, the LDH [4] was 38.5 IU/L, the Na [4] was 141 meq/L and the PL [4] was 125.5 mg/dL. For the same compound, the RALB [4] was 2.7 g/dL, the TBIL [4] was 0.04 mg/dL and the TC [4] was 62 mg/dL. It also gave a TG [4] of 61.5 mg/dL, a TP [4] of 6 g/dL and a gamma-GTP [4] of 2 IU/L.
